Reference: patent publication US9181183B2, “Prostaglandin D synthase inhibitory piperidine compounds” (Taiho Pharmaceutical Co., Ltd., priority 2010, dated 2015)

Molecular target: human H-PGDS (Homo sapiens, UniProt O60760)
Assay: Hematopoietic prostaglandin D synthase (H-PGDS) inhibiting action, [14C]PGH2 to PGD2 conversion, TLC radioassay
Type: biochemical
Settings: compound 0.1 μM, inhibition rate relative to solvent control group, [14C] prostaglandin H2 10 μM, 25° C.; for inhibition at 0.1 µM: read-out: H-PGDS inh. (% at 0.1 μM)
Description: The test was carried out according to the method of Urade, Y. et al. (J. Biol. Chem., 262, 3820-3825, (1987)). More specifically, a reaction mixture (49 μL) containing 100 mM Tris-HCl (pH 8.0), 1 mM reduced form glutathione, 0.1 mg/mL γ-globulin, human H-PGDS (q.s.), and a compound (0.1 μM) was preincubated at 25° C. for 5 minutes. A DMSO solution (final concentration: 1%) was added to the solvent control group. Subsequently, 1 μL of [^14C] prostaglandin H2 (final concentration: 10 μM) was added to start the reaction. One minute after the start of the reaction, 250 μL of a reaction stopper solution (diethylether/methanol/1M citric acid (30/4/1)) cooled with ice was added to stop the reaction. After the reaction was stopped, 50 μL of the upper layer portion (organic solvent phase) was applied to a TLC plate and developed at −20° C. for 45 minutes (developing solvent: diethylether/methanol/acetic acid (90/2/1)). After the TLC plate was dried and exposed to an imaging plate for 1 to 24 hours, the radioactivity corresponding to prostaglandin D2 (PGD2) was analyzed using an image analyzer (produced by Fujifilm Corporation). The area (%) occupied by the PGD2 band per lane and the inhibition rate (%) of each Example compound at 0.1 μM relative to the control group in each experiment were calculated.

human H-PGDS, sequence (O60760 whole entry): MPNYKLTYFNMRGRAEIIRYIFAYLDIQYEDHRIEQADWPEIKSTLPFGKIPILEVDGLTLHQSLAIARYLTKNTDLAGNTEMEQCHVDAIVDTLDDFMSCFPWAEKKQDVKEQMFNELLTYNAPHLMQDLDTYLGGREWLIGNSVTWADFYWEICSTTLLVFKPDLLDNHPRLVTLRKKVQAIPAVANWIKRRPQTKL

Row | Compound | inhibition at 0.1 µM | H-PGDS inh. (% at 0.1 μM)
1 | O=C(Nc1nc2ccc(-c3cccnc3)cc2s1)N1CCC(=Cc2ccccn2)CC1 [Example 3, N-(6-(pyridin-3-yl)-benzo[d]thiazol-2-yl)-4-(pyridin-2-ylmethylene)-piperidine-1-carboxamide] | 85.7% | –
2 | O=C(Nc1ncc(C(=O)N2CCOCC2)s1)N1CCC(=Cc2cc(F)ccc2F)CC1 [Example 58, 4-(2,5-difluorobenzylidene)-N-(5-(morpholine-4-carbonyl)thiazol-2-yl)piperidine-1-carboxamide] | 80.8% | –
3 | Cn1cccc1C(=O)N1CCC(NC(=O)N2CCC(=Cc3cc(F)ccc3F)CC2)CC1 [Example 55, 4-(2,5-difluorobenzylidene)-N-(1-(1-methyl-1H-pyrrole-2-carbonyl)piperidin-4-yl)piperidine-1-carboxamide] | 70.9% | –
4 | O=C(O)c1ccc(NC(=O)c2cnc(NC(=O)N3CCC(=Cc4ccccn4)CC3)s2)cc1 [Example 18, 4-(2-(4-(pyridin-2-ylmethylene)piperidine-1-carboxamido)thiazole-5-carboxamido)benzoic acid] | 65.1% | –
5 | O=C(NC1CCN(C(=O)c2ccccc2)CC1)N1CCC(=Cc2cc(F)ccc2F)CC1 [Example 47, N-(1-benzoylpiperidin-4-yl)-4-(2,5-difluorobenzylidene)piperidine-1-carboxamide] | 62% | –
6 | Cc1noc(C)c1-c1ccc2nc(NC(=O)N3CCC(=Cc4ccccn4)CC3)sc2c1 [Example 4, N-(6-(3,5-dimethylisoxazol-4-yl)-benzo[d]thiazol-2-yl)-4-(pyridin-2-ylmethylene)-piperidine-1-carboxamide] | 62.9% | –
7 | O=C(Nc1nccs1)c1ccc(-c2ccc(NC(=O)N3CCC(=Cc4ccccn4)CC3)cn2)cc1 [Example 29, 4-(pyridin-2-ylmethylene)-N-(6-(4-(thiazol-2-ylcarbamoyl)phenyl)pyridin-3-yl)piperidine-1-carboxamide] | 78.8% | –
8 | O=C(Nc1ccc(N2CCCCC2)cc1)c1cnc(NC(=O)N2CCC(=Cc3ccccn3)CC2)s1 [Example 16, N-(4-(piperidin-1-yl)phenyl)-2-(4-(pyridin-2-ylmethylene)piperidine-1-carboxamido)thiazole-5-carboxamide] | 52.7% | –
9 | O=C(Nc1nc2ccc(Br)cc2s1)N1CCC(=Cc2ccccn2)CC1 [Example 1, N-(6-bromobenzo[d]thiazol-2-yl)-4-(pyridin-2-ylmethylene)-piperidine-1-carboxamide] | 70.9% | –
10 | N-(4-(morpholin-1-yl-carbonyl)phenyl)-2-(4-(pyridin-2-ylmethylene)piperidine-1-carboxamido)thiazole-5-carboxamide [Example 19] | – | 55.1%
11 | O=C(Nc1ccc2nc(NC(=O)N3CCC(=Cc4ccccn4)CC3)sc2c1)N1CCOCC1 [Example 11, N-(2-(4-(pyridin-2-ylmethylene)piperidine-1-carboxamido)benzo[d]thiazol-6-yl)morpholine-4-carboxamide] | 52.4% | –
12 | O=C(Nc1ccccc1)Nc1ccc(NC(=O)N2CCC(=Cc3cc(F)ccc3F)CC2)cc1 [Example 73, 4-(2,5-difluorobenzylidene)-N-(4-(3-phenylureido)phenyl)piperidine-1-carboxamide] | 71% | –
13 | O=C(Nc1ccc(OCc2ccccc2)cc1)N1CCC(=Cc2ccccn2)CC1 [Example 68, N-(4-(benzyloxy)phenyl)-4-(pyridin-2-ylmethylene)piperidine-1-carboxamide] | 59.8% | –
14 | CC(C)(C)C(=O)N1CCC(NC(=O)N2CCC(=Cc3cc(F)ccc3F)CC2)CC1 [Example 46, 4-(2,5-difluorobenzylidene)-N-(1-pivaloylpiperidin-4-yl)piperidine-1-carboxamide] | 77.3% | –
15 | Nc1ccc2nc(NC(=O)N3CCC(=Cc4ccccn4)CC3)sc2c1 [Example 10, N-(6-aminobenzo[d]thiazol-2-yl)-4-(pyridin-2-ylmethylene)-piperidine-1-carboxamide] | 61.9% | –
16 | N-(4-(2-(4-(pyridin-2-ylmethylene)piperidine-1-carboxamido)thiazol-5-yl)phenyl)morpholin-1-yl-carboxamide [Example 25] | – | 56.4%

More lines, main results first:

Row | inhibition at 0.1 µM | Compound | H-PGDS inh. (% at 0.1 μM)
17 | 64.7% | Cc1ccnc(C(=O)N2CCC(NC(=O)N3CCC(=Cc4cc(F)ccc4F)CC3)CC2)c1 [Example 63, 4-(2,5-difluorobenzylidene)-N-(1-(4-methylpicolinoyl)piperidin-4-yl)piperidine-1-carboxamide] | –
18 | 82.9% | O=C(NC1CCN(C(=O)C(F)(F)F)CC1)N1CCC(=Cc2cc(F)ccc2F)CC1 [Example 38, 4-(2,5-difluorobenzylidene)-N-(1-(2,2,2-trifluoroacetyl)piperidin-4-yl)piperidine-1-carboxamide] | –
19 | 62.9% | O=C(Nc1ccc(Nc2ccccc2)cc1)N1CCC(=Cc2ccccn2)CC1 [Example 71, N-(4-(phenylamino)phenyl)-4-(pyridin-2-ylmethylene)piperidine-1-carboxamide] | –
20 | 77.8% | O=C(Nc1nc2ccc(-c3ccncc3)cc2s1)N1CCC(=Cc2ccccn2)CC1 [Example 5, N-(6-(pyridin-4-yl)-benzo[d]thiazol-2-yl)-4-(pyridin-2-ylmethylene)-piperidine-1-carboxamide] | –
21 | 59.9% | O=C(NC1CCN(C(=O)C2CCC2)CC1)N1CCC(=Cc2cc(F)ccc2F)CC1 [Example 50, N-(1-(cyclobutanecarbonyl)piperidin-4-yl)-4-(2,5-difluorobenzylidene)piperidine-1-carboxamide] | –
22 | 35% | O=C(Nc1cnc2ccccc2c1)N1CCC(=Cc2ccccn2)CC1 [Example 85, 4-(pyridin-2-ylmethylene)-N-(quinolin-3-yl)piperidine-1-carboxamide] | –
23 | 66% | O=C(Nc1ccc(NC(=O)N2CCC(=Cc3cc(F)ccc3F)CC2)cn1)c1cscn1 [Example 80, N-(5-(4-(2,5-difluorobenzylidene)piperidine-1-carboxamido)pyridin-2-yl)thiazole-4-carboxamide] | –
24 | 77.2% | O=C(NC1CCN(CC(F)(F)F)CC1)N1CCC(=Cc2cc(F)ccc2F)CC1 [Example 35, 4-(2,5-difluorobenzylidene)-N-(1-(2,2,2-trifluoroethyl)piperidin-4-yl)piperidine-1-carboxamide] | –
25 | 67.7% | O=C(NC1CCN(C(=O)c2cccc(F)c2)CC1)N1CCC(=Cc2cc(F)ccc2F)CC1 [Example 61, 4-(2,5-difluorobenzylidene)-N-(1-(3-fluorobenzoyl)piperidin-4-yl)piperidine-1-carboxamide] | –
26 | 51.3% | O=C(Nc1ccc(OCc2ccccc2)cc1)N1CCC(=Cc2cc(F)ccc2F)CC1 [Example 69, N-(4-(benzyloxy)phenyl)-4-(2,5-difluorobenzylidene)piperidine-1-carboxamide] | –
27 | 77.8% | O=C(NC1CCN(c2ccc(CCn3ccnn3)cc2)CC1)N1CCC(=Cc2cc(F)ccc2F)CC1 [Example 34, N-(1-(4-(2-(1H-1,2,3-triazol-1-yl)ethyl)phenyl)piperidin-4-yl)-4-(2,5-difluorobenzylidene)piperidine-1-carboxamide] | –
28 | 56.8% | O=C(Nc1ccc(NC(=O)N2CCC(=Cc3cc(F)ccc3F)CC2)cn1)c1ccccn1 [Example 79, N-(5-(4-(2,5-difluorobenzylidene)piperidine-1-carboxamido)pyridin-2-yl)picolinamide] | –
29 | 80% | O=C(Nc1nc2ccc(-c3cccs3)cc2s1)N1CCC(=Cc2ccccn2)CC1 [Example 8, N-(6-(thiophen-2-yl)-benzo[d]thiazol-2-yl)-4-(pyridin-2-ylmethylene)-piperidine-1-carboxamide] | –
30 | 76.6% | COc1ncccc1-c1ccc2nc(NC(=O)N3CCC(=Cc4ccccn4)CC3)sc2c1 [Example 9, N-(6-(2-methoxypyridin-3-yl)-benzo[d]thiazol-2-yl)-4-(pyridin-2-ylmethylene)-piperidine-1-carboxamide] | –
31 | 70.9% | O=C(Nc1ccc(NC(=O)N2CCC(=Cc3cc(F)ccc3F)CC2)cc1)c1ccccn1 [Example 74, N-(4-(4-(2,5-difluorobenzylidene)piperidine-1-carboxamido)phenyl)picolinamide] | –
32 | 67.1% | O=C(NC1CCN(C(=O)c2ccccc2F)CC1)N1CCC(=Cc2cc(F)ccc2F)CC1 [Example 60, 4-(2,5-difluorobenzylidene)-N-(1-(2-fluorobenzoyl)piperidin-4-yl)piperidine-1-carboxamide] | –
33 | 71.4% | CC(F)(F)C(=O)N1CCC(NC(=O)N2CCC(=Cc3cc(F)ccc3F)CC2)CC1 [Example 40, 4-(2,5-difluorobenzylidene)-N-(1-(2,2-difluoropropanoyl)piperidin-4-yl)piperidine-1-carboxamide] | –
34 | 54.2% | Cc1cccnc1C(=O)N1CCC(NC(=O)N2CCC(=Cc3cc(F)ccc3F)CC2)CC1 [Example 62, 4-(2,5-difluorobenzylidene)-N-(1-(3-methylpicolinoyl)piperidin-4-yl)piperidine-1-carboxamide] | –
